This passage reports Aggregation ratio and Inhibition ratio results from patent US7470707B2, “Crystalline monohydrate clopidogrel naphthalenedisulfonate and process of preparation” (Hanmi Pharm. Co., Ltd, priority 2004, dated 2008).

Where a name gives a salt, the structure may show the parent alone. Read-outs that look alike come from different tables or passages of the source.

Assay [1] relates to platelet aggregation induced by thrombin. Particulars: Thrombin (0.1 U/ml), washed platelets of female Sprague-Dawley rats after oral dose corresponding to clopidogrel 15.3 mg/kg. As to the method: (§1) The pharmacological activities for preventing platelet aggregation of the clopidogrel hydrogen sulfate obtained in Comparative Example 1, and the inventive clopidogrel 2-naphthalenesulfonate and clopidogrel 1,5-naphthalenedisulfonate monohydrate obtained in Examples 1 and 2, respectively, were tested using rat blood in accordance with the standard method (see Born G.V.R & Cross, J. Physiol. 168: 178-195, 1963; 0. Takahashi, Food & Chemical Toxicology 38: 203-218, 2000). The platelet aggregation inhibition test was performed ex vivo, and the inhibitory activities of the acid addition salts against platelets aggregation induced by adenosine-diphosphate (ADP), collagen and thrombin, respectively, were measured.
(§2) Twenty 11 to 12-weeks old female Sprague-Dawley rats (average weight: 270±25 g) were divided into four groups each consisting of five rats, and each group of rats was orally administered with 20.0 mg/kg of clopidogrel hydrogen sulfate (15.3 mg/kg as clopidogrel), 25.2 mg/kg of clopidogrel 2-naphthalenesulfonate, and 22.6 mg/kg of clopidogrel 1,5-naphthalenedisulfonate monohydrate dissolved in 1% DMSO based on a volume of 10 ml/kg body weight. For the control group of rats, only 1% DMSO solution was administered.
(§3) Blood samples were taken using a syringe pre-charged with 3.8% citric acid solution from the abdominal artery of the animals under anesthesia, and the blood samples were centrifuged at 4° C. and 1,000 rpm for 10 minutes to separate platelet-rich plasma (PRP). The separated plasma was further centrifuged four times at 4° C. and 1,000 rpm to obtain PRP for test. A portion of PRP was further centrifuged at 4° C. and 3,000 rpm for 10 minutes to prepare precipitated platelet, and the precipitated platelet was washed with a buffer (138 mM NaCl, 2.7 mM KCl, 12 mM NaHCO3, 0.36 mM NaH2PO4, 5.5 mM glucose, 1 mM EDTA: pH 6.5). Then, the platelet was suspended in a buffer (138 mM NaCl, 2.7 mM KCl, 12 mM NaHCO3, 0.36 mM NaH2PO4, 0.49 mM MgCl2, 0.25% gelatin, 5.5 mM glucose: pH 7.4) such that the optical density (OD) value at 260 nm corresponded to a number of platelet which is about 1×10^8.
(§4) To induce platelet aggregation, ADP standard solution was added to the above PRP to determine the concentration until the final concentration of the ADP became 5 μM. Further, a collagen standard solution (final concentration 5 μg/ml) and thrombin standard solution (final concentration 0.1 U/ml) was added to the above washing platelet solution to induce platelet aggregation. Each of the samples was stirred at 37° C. and 900 rpm to measure the amount of platelet aggregation using a aggregometer (Chrono-log Platelet Aggregometer). The degrees of platelet aggregation and inhibition were calculated using formulae 1 and 2, and the results are shown in Table 8. Degree of aggregation (%)=[(measured aggregation height)/(aggregation height when 100% was aggregated)]×100 <Formula 1> Degree of inhibition (%)=[(aggregation height of control group)−(aggregation height of drug administration group)]/(aggregation height of control group)×100 <Formula 2>

For assay [2], the system named is platelet aggregation induced by adenosine-diphosphate (ADP). The settings on record: ADP (5 μM), PRP of female Sprague-Dawley rats after oral dose corresponding to clopidogrel 15.3 mg/kg. As to the method:
as §1, §2, §3, §4

Assay [3] relates to platelet aggregation induced by collagen. Particulars: Collagen (5 μg/ml), washed platelets of female Sprague-Dawley rats after oral dose corresponding to clopidogrel 15.3 mg/kg. As to the method: as §1, §2, §3, §4

With `COC(=O)[C@H](c1ccccc1Cl)N1CCc2sccc2C1` [1,5-Naphthalenedisulfonate monohydrate, Clopidogrel 1,5-naphthalenedisulfonate Monohydrate], the results for the Aggregation ratio in assay [1] (Monohydrate), in assay [2] (Monohydrate) and in assay [3] (Monohydrate) were 23.61 ± 1.43%, 4.12 ± 0.14% and 3.75 ± 0.40%, respectively. Also, the figures for the Inhibition ratio in assay [1] (Monohydrate), in assay [2] (Monohydrate) and in assay [3] (Monohydrate) were 71.5%, 88.5% and 95.3%, respectively.

As to `COC(=O)[C@H](c1ccccc1Cl)N1CCc2sccc2C1` [Hydrogen sulfate, Clopidogrel Hydrogen Sulfate, reference compound], the Aggregation ratio came out at 27.22 ± 1.52% in assay [1], 5.00 ± 0.60% in assay [2] and 12.19 ± 1.70% in assay [3]. The Inhibition ratio is reported as 67.1% in assay [1], 86.1% in assay [2] and 84.8% in assay [3].

On to `COC(=O)[C@H](c1ccccc1Cl)N1CCc2sccc2C1` [2-Naphthalenesulfonate, Clopidogrel 2-naphthalenesulfonate], for which the Aggregation ratio in assay [1] was 15.00 ± 1.71%; in assay [2], 2.94 ± 0.21%; in assay [3] it was 1.88 ± 0.25%. Besides, the values for the Inhibition ratio in assay [1], in assay [2] and in assay [3] were 81.9%, 91.8% and 97.9%, respectively.
